Source: US10358427B2, “Modulators of indoleamine 2,3-dioxygenase” (GLAXOSMITHKLINE INTELLECTUAL PROPERTY DEVELOPMENT LIMITED, priority 2015, dated 2019)

Experiments:
[1] = molecular target: T1, indoleamine 2, 3-dioxygenase (IDO1) (Homo sapiens, UniProt P14902); experiment: PBMC IDOi assay (kynurenine detection via mass spectrometry); type: cell-based; details: human PBMC stimulated with IFN-γ and LPS; kynurenine by mass spectrometry; 2 days incubation
Experimental: (§1) Compounds of the present invention were tested via high-throughput cellular assays utilizing detection of kynurenine via mass spectrometry and cytotoxicity as end-points. For the mass spectrometry and cytotoxicity assays, human peripheral blood mononuclear cells (PBMC) (PB003F; AlICells®, Alameda, Calif.) were stimulated with human interferon-γ (IFN-γ) (Sigma-Aldrich Corporation, St. Louis, Mo.) and lipopolysaccharide from Salmonella minnesota (LPS) (Invivogen, San Diego, Calif.) to induce the expression of indoleamine 2, 3-dioxygenase (IDO1). Compounds with IDO1 inhibitory properties decreased the amount of kynurenine produced by the cells via the tryptophan catabolic pathway. Cellular toxicity due to the effect of compound treatment was measured using CellTiter-Glo® reagent (CTG) (Promega Corporation, Madison, Wis.), which is based on luminescent detection of ATP, an indicator of metabolically active cells.
(§2) In preparation for the assays, test compounds were serially diluted 3-fold in DMSO from a typical top concentration of 5 mM and plated at 0.5 μL in 384-well, polystyrene, clear bottom, tissue culture treated plates with lids (Greiner Bio-One, Kremsmünster, Austria) to generate 11-point dose response curves. Low control wells (0% kynurenine or 100% cytotoxicity) contained either 0.5 μL of DMSO in the presence of unstimulated (−IFN-γ/−LPS) PBMCs for the mass spectrometry assay or 0.5 μL of DMSO in the absence of cells for the cytotoxicity assay, and high control wells (100% kynurenine or 0% cytotoxicity) contained 0.5 μL of DMSO in the presence of stimulated (+IFN-γ/+LPS) PBMCs for both the mass spectrometry and cytotoxicity assays.
Frozen stocks of PBMCs were washed and recovered in RPMI 1640 medium (Thermo Fisher Scientific, Inc., Waltham, Mass.) supplemented with 10% v/v heat-inactivated fetal bovine serum (FBS) (Thermo Fisher Scientific, Inc., Waltham, Mass.), and 1× penicillin-streptomycin antibiotic solution (Thermo Fisher Scientific, Inc., Waltham, Mass.). The cells were diluted to 1,000,000 cells/mL in the supplemented RPMI 1640 medium. 50 μL of either the cell suspension, for the mass spectrometry assay, or medium alone, for the cytotoxicity assay, were added to the low control wells, on the previously prepared 384-well compound plates, resulting in 50,000 cells/well or 0 cells/well respectively. IFN-γ and LPS were added to the remaining cell suspension at final concentrations of 100 ng/ml and 50 ng/ml respectively, and 50 μL of the stimulated cells were added to all remaining wells on the 384-well compound plates. The plates, with lids, were then placed in a 37° C., 5% CO2 humidified incubator for 2 days.
(§3) Following incubation, the 384-well plates were removed from the incubator and allowed to equilibrate to room temperature for 30 minutes. For the cytotoxicity assay, CellTiter-Glo® was prepared according to the manufacturer's instructions, and 40 μL were added to each plate well. After a twenty minute incubation at room temperature, luminescence was read on an EnVision® Multilabel Reader (PerkinElmer Inc., Waltham, Mass.). For the mass spectrometry assay, 10 μL of supernatant from each well of the compound-treated plates were added to 40 μL of acetonitrile, containing 10 μM of an internal standard for normalization, in 384-well, polypropylene, V-bottom plates (Greiner Bio-One, Kremsmünster, Austria) to extract the organic analytes. Following centrifugation at 2000 rpm for 10 minutes, 10 μL from each well of the acetonitrile extraction plates were added to 90 μL of sterile, distilled H2O in 384-well, polypropylene, V-bottom plates for analysis of kynurenine and the internal standard on the RapidFire 300 (Agilent Technologies, Santa Clara, Calif.) and 4000 QTRAP MS (SCIEX, Framingham, Mass.). MS data were integrated using Agilent Technologies' RapidFire Integrator software, and data were normalized for analysis as a ratio of kynurenine to the internal standard. […]

[2] = molecular target: T1, indoleamine 2, 3-dioxygenase (IDO1); experiment: HeLa IDOi assay (kynurenine detection via mass spectrometry); type: cell-based; design: human epithelial HeLa cells (CCL-2; host or cells: HeLa cells stimulated with human IFN-γ; details: human epithelial HeLa cells stimulated with IFN-γ; kynurenine by mass spectrometry; 2 days incubation
Experimental: as §1, with “epithelial HeLa” for “peripheral blood mononuclear”, “(CCL-2; ATCC®, Manassas, Va.)” for “(PBMC) (PB003F; AlICells®, Alameda, Calif.)”, “Mo.)” for “Mo.) and lipopolysaccharide from Salmonella minnesota (LPS) (Invivogen, San Diego, Calif.)”
as §2, with “(−IFN-γ) HeLa cells” for “(−IFN-γ/−LPS) PBMCs”, “(+IFN-γ) HeLa cells” for “(+IFN-γ/+LPS) PBMCs”
Frozen stocks of HeLa cells were washed and recovered in DMEM high glucose medium with HEPES (Thermo Fisher Scientific, Inc., Waltham, Mass.) supplemented with 10% v/v certified fetal bovine serum (FBS) (Thermo Fisher Scientific, Inc., Waltham, Mass.), and 1× penicillin-streptomycin antibiotic solution (Thermo Fisher Scientific, Inc., Waltham, Mass.). The cells were diluted to 100,000 cells/mL in the supplemented DMEM medium. 50 μL of either the cell suspension, for the mass spectrometry assay, or medium alone, for the cytotoxicity assay, were added to the low control wells, on the previously prepared 384-well compound plates, resulting in 5,000 cells/well or 0 cells/well respectively. IFN-γ was added to the remaining cell suspension at a final concentration of 10 nM, and 50 μL of the stimulated cells were added to all remaining wells on the 384-well compound plates. The plates, with lids, were then placed in a 37° C., 5% CO2 humidified incubator for 2 days.
as §3, with “instructions, and 10 μL were” for “instructions, and 40 μL were”

T1 sequence (P14902 whole entry): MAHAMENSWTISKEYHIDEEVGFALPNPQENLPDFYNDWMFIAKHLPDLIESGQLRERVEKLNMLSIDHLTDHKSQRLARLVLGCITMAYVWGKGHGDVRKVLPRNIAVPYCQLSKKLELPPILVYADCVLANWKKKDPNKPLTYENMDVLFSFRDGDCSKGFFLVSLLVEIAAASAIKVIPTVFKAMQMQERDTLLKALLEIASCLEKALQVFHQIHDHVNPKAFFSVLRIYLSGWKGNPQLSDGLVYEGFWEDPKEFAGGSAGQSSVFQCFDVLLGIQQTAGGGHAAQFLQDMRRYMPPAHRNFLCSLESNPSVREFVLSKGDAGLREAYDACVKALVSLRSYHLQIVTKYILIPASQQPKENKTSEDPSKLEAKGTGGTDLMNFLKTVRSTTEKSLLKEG

Row | EC50 [1] [nM] | EC50 [2] [nM] | Compound
1 | 63.1 | 100 | CCCC(CCC)Oc1ccc(-c2ccccc2-c2nnn[nH]2)cc1Nc1nc2ccccc2o1 [Example 16, N-(4-(Heptan-4-yloxy)-2′-(1H-tetrazol-5-yl)-[1,1′-biphenyl]-3-yl)benzo[d]oxazol-2-amine]
2 | 1.58 | 6.31 | CC(C)CN(c1ccc(-c2ccccc2-c2nnn[nH]2)cc1Nc1nc2ccccc2[nH]1)C1CCCCC1 [Example 19, N^3-(1H-benzo[d]imidazol-2-yl)-N^4-cyclohexyl-N^4-isobutyl-2′-(1H-tetrazol-5-yl)-[1,1′-biphenyl]-3,4-diamine]

Continued, compound first:

Row | Compound | EC50 [1] [nM] | EC50 [2] [nM]
3 | CC(C)CN(c1ccc(-c2ccccc2C(=O)O)cc1Nc1nc(C(F)(F)F)ns1)C1CCCCC1 [Example 17, 4′-(Cyclohexyl(isobutyl)amino)-3′((3-(trifluoromethyl)-1,2,4-thiadiazol-5-yl)amino)-[1,1′-biphenyl]-2-carboxylic acid] | 1 | 2
4 | CC(C)CN(c1ccc(-c2ccccc2-c2nnn[nH]2)cc1Nc1nc(C(F)(F)F)ns1)C1CCCCC1 [Example 18, N^4-cyclohexyl-N^4-isobutyl-2′-(1H-tetrazol-5-yl)-N^3-(3-(trifluoromethyl)-1,2,4-thiadiazol-5-yl)-[1,1′-biphenyl]-3,4-diamine] | 1.26 | 2.51
5 | CC(C)CN(c1ccc(-c2ccccc2C(=O)O)cc1Nc1nnc(C2CC2)s1)C1CCCCC1 [Example 20, 4′-(Cyclohexyl(isobutyl)amino)-3′((5-cyclopropyl-1,3,4-thiadiazol-2-yl)amino)-[1,1′-biphenyl]-2-carboxylic acid] | 0.794 | 2
6 | CC(C)CN(c1ccc(-c2ccccc2-c2nnn[nH]2)cc1Nc1nnc(C2CC2)s1)C1CCCCC1 [Example 21, N^4-Cyclohexyl-N^3-(5-cyclopropyl-1,3,4-thiadiazol-2-yl)-N^4-isobutyl-2′-(1H-tetrazol-5-yl)-[1,1′-biphenyl]-3,4-diamine] | 1.58 | 3.16
